Measurements published in PubChem BioAssay (NCI).
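A five-concentration, 48-hour dose response in 96-well plates underlies each endpoint, interpolated linearly between surrounding concentrations. Definition used: TGI = concentration required for complete inhibition of growth.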

Columns and labels:
Test in all cases: inhibition of tumour cell growth, NCI panel, 48 h
MDA-MB-435 = test system: MDA-MB-435
MALME-3M melanoma = test system: MALME-3M melanoma
RPMI-8226 leukemia = test system: RPMI-8226 leukemia
COLO 205 colon = test system: COLO 205 colon
CCRF-CEM leukemia = test system: CCRF-CEM leukemia
U251 CNS = test system: U251 CNS
SF-539 CNS = test system: SF-539 CNS
HOP-92 NSCLC = test system: HOP-92 NSCLC
HS 578T breast = test system: HS 578T breast
T-47D breast = test system: T-47D breast
SN12C renal = test system: SN12C renal
A549 NSCLC = test system: A549 NSCLC
SR leukemia = test system: SR leukemia
SF-295 CNS = test system: SF-295 CNS
HL-60(TB) leukemia = test system: HL-60(TB) leukemia
MCF7 breast = test system: MCF7 breast
A498 renal = test system: A498 renal
LOX IMVI melanoma = test system: LOX IMVI melanoma
NCI-H522 lung = test system: NCI-H522 lung
HCT-15 colon = test system: HCT-15 colon
K-562 leukemia = test system: K-562 leukemia
BT-549 breast = test system: BT-549 breast
HCC-2998 colon = test system: HCC-2998 colon
UACC-257 melanoma = test system: UACC-257 melanoma
HCT-116 colon = test system: HCT-116 colon
786-0 renal = test system: 786-0 renal
KM12 colon = test system: KM12 colon
PC-3 prostate = test system: PC-3 prostate
NCI-H23 lung = test system: NCI-H23 lung
OVCAR-3 ovarian = test system: OVCAR-3 ovarian
OVCAR-8 ovarian = test system: OVCAR-8 ovarian
HOP-62 NSCLC = test system: HOP-62 NSCLC
M14 melanoma = test system: M14 melanoma
SK-OV-3 ovarian = test system: SK-OV-3 ovarian
IGROV1 ovarian = test system: IGROV1 ovarian
TK-10 renal = test system: TK-10 renal
EKVX NSCLC = test system: EKVX NSCLC
SF-268 CNS = test system: SF-268 CNS
MDA-MB-231 breast = test system: MDA-MB-231 breast
DU-145 prostate = test system: DU-145 prostate
OVCAR-4 ovarian = test system: OVCAR-4 ovarian
SK-MEL-28 melanoma = test system: SK-MEL-28 melanoma
RXF 393 renal = test system: RXF 393 renal
ACHN renal = test system: ACHN renal
UACC-62 melanoma = test system: UACC-62 melanoma
NCI-H460 lung = test system: NCI-H460 lung
SNB-75 CNS = test system: SNB-75 CNS
HT29 colon = test system: HT29 colon
NCI/ADR-RES ovarian = test system: NCI/ADR-RES ovarian
NCI-H226 lung = test system: NCI-H226 lung
SW-620 colon = test system: SW-620 colon
MOLT-4 leukemia = test system: MOLT-4 leukemia

Measured: TGI

[N-]=[N+]=Nc1cccc(-c2n[nH]c(Cl)cc2=O)c1
> 100 µM: all assays above
